Source: the supplement of paper PMC5908809

Experiments:
[1] = system: normal NK cells expanded with K562-aAPC; assay: percent inhibition of viability; higher = more inhibition; details: 72 h, IL-2 2.5 ng/mL
Method: (§1)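 Drug sensitivity and resistance testing on K562-aAPC-expanded normal NK cells: 5 concentrations (10-fold steps over a 10,000-fold range), 72 h at 37 °C, viability by CellTiter-Glo normalised to DMSO and benzethonium chloride controls; DSS from the fitted curve.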

[2] = system: normal primary NK cells, pool 1 (3 donors) (IL-2 2.5 ng/mL); assay: drug sensitivity score (DSS) (DSS units); higher = more sensitive; extreme values may be limits of the assay; details: 72 h
[3] = system: DERL-7 (IL-2 2.5 ng/mL); assay: as above; details: 72 h
[4] = system: SNK-6 (IL-2 2.5 ng/mL); assay: as above; details: 72 h
[5] = system: normal primary NK cells, pool 2 (3 donors) (IL-2 2.5 ng/mL); assay: as above; details: 72 h
[6] = system: NK-YS (IL-2 2.5 ng/mL); assay: as above; details: 72 h
[7] = system: NK-92 (IL-2 2.5 ng/mL); assay: as above; details: 72 h
[8] = system: KAI3 (IL-2 2.5 ng/mL); assay: as above; details: 72 h
[9] = system: KHYG-1 (IL-2 2.5 ng/mL); assay: as above; details: 72 h
[10] = system: IMC-1 (IL-2 20 ng/mL); assay: as above; details: 72 h
[11] = system: NKL (IL-2 2.5 ng/mL); assay: as above; details: 72 h
[12] = system: YT (IL-2 2.5 ng/mL); assay: as above; details: 72 h
[13] = system: normal primary NK cells, pool 1 (3 donors), resting (IL-2 0 ng/mL); assay: as above; details: 72 h
[14] = system: normal primary NK cells, pool 3 (3 donors) (IL-2 2.5 ng/mL); assay: as above; details: 72 h
[15] = system: normal primary NK cells, pool 1 (3 donors) (IL-2 2.5 ng/mL); assay: percent inhibition of viability; higher = more inhibition; details: 72 h
[16] = system: DERL-7 (IL-2 2.5 ng/mL); assay: as above; details: 72 h
[17] = system: SNK-6 (IL-2 2.5 ng/mL); assay: as above; details: 72 h
[18] = system: normal primary NK cells, pool 2 (3 donors) (IL-2 2.5 ng/mL); assay: as above; details: 72 h
[19] = system: NK-YS (IL-2 2.5 ng/mL); assay: as above; details: 72 h
[20] = system: NK-92 (IL-2 2.5 ng/mL); assay: as above; details: 72 h
[21] = system: KAI3 (IL-2 2.5 ng/mL); assay: as above; details: 72 h
[22] = system: KHYG-1 (IL-2 2.5 ng/mL); assay: as above; details: 72 h
[23] = system: IMC-1 (IL-2 20 ng/mL); assay: as above; details: 72 h
[24] = system: NKL (IL-2 2.5 ng/mL); assay: as above; details: 72 h
[25] = system: YT (IL-2 2.5 ng/mL); assay: as above; details: 72 h
[26] = system: normal primary NK cells, pool 1 (3 donors), resting (IL-2 0 ng/mL); assay: as above; details: 72 h
[27] = system: normal primary NK cells, pool 3 (3 donors) (IL-2 2.5 ng/mL); assay: as above; details: 72 h
[28] = system: normal NK cells expanded with K562-aAPC; assay: drug sensitivity score (DSS) (DSS units); higher = more sensitive; extreme values may be limits of the assay; details: 72 h; IL-2 2.5 ng/mL
Method: as §1

Cc1c(N)nc([C@H](CC(N)=O)NC[C@H](N)C(N)=O)nc1C(=O)N[C@H](C(=O)N[C@H](C)[C@@H](O)[C@H](C)C(=O)N[C@H](C(=O)NCCc1nc(-c2nc(C(=O)NCCC[S+](C)C)cs2)cs1)[C@@H](C)O)[C@@H](OC1OC(CO)C(O)C(O)C1OC1OC(CO)C(O)C(OC(N)=O)C1O)c1cnc[nH]1 (some centres not stated) [Bleomycin] (max concentration tested 10000 nM)
percent inhibition of viability [%]
Details | 1 nM | 10 nM | 100 nM | 1000 nM | 10000 nM
[1] | 3.15 | -1.5 | 7.63 | 34.1 | 62.5
[15] | -8.98 | 2.35 | -2.19 | 6.69 | 52.9
[16] | 0.04 | -2.28 | 1.21 | 29.5 | 78.2
[17] | 9.29 | 19.8 | 68.8 | 97 | 101
[18] | -11.5 | -5.49 | -1.39 | 19.4 | 73.8
[19] | -1.93 | -5.64 | 6.84 | 52.8 | 81.4
[20] | -18 | -20.7 | 13.2 | 60.3 | 99
[21] | -4.06 | -8.69 | 8.99 | 52.9 | 77
[22] | -3.86 | -5.7 | -1.32 | 7.38 | 67.6
[23] | -0.57 | -6.19 | 5.49 | 17.2 | 56.8
[24] | -14.6 | -9.35 | -1.37 | 39.7 | 96.6
[25] | -2.74 | -1.16 | 1.84 | 13.3 | 51.6
[26] | -6.18 | -0.23 | -9.89 | -6.49 | 82
[27] | -10.1 | -1.71 | 12.2 | 27.9 | 68.2

Details | drug sensitivity score
[2] | 3.94
[3] | 8.38
[4] | 27.6
[5] | 7.05
[6] | 11.1
[7] | 13.2
[8] | 11.2
[9] | 4.93
[10] | 5.31
[11] | 10.6
[12] | 4.81
[13] | 4.07
[14] | 6.94
[28] | 7.53

COc1nc(N)nc2c1ncn2[C@@H]1O[C@H](CO)[C@@H](O)[C@@H]1O [Nelarabine] (max concentration tested 10000 nM)
percent inhibition of viability [%]
Details | 1 nM | 10 nM | 100 nM | 1000 nM | 10000 nM
[1] | 0.53 | 1.13 | 1.94 | 15.5 | 66.8
[15] | -10.4 | -4.07 | 23.9 | 61.1 | 92.1
[16] | 1.44 | 7.77 | 2.31 | 12.4 | 46.1
[17] | 2.48 | -13.9 | -9.19 | -25.6 | -2.36
[18] | -2.48 | 5 | 21.2 | 59.8 | 82.4
[19] | 2.42 | -3.62 | 0.15 | 3.98 | 14.6
[20] | 8.71 | -6.85 | 4.79 | 8.69 | 32
[21] | 15.6 | 16.4 | 12.6 | 25.8 | 53.3
[22] | 4.68 | -0.73 | -1.55 | -1.11 | 27.2
[23] | -3.75 | -1.52 | -5.24 | -11.7 | -10.4
[24] | 5.77 | 8.18 | 3.83 | 10.4 | 56.7
[25] | 2.6 | -3.18 | 0.56 | 1.65 | 5.92
[26] | 14.4 | 22.7 | 58.9 | 88.3 | 91.7
[27] | 11.4 | 8.39 | 27.7 | 65.5 | 82.3

Details | drug sensitivity score
[2] | 14.4
[3] | 4.29
[4] | 0
[5] | 13.8
[6] | 0.54
[7] | 2.5
[8] | 8.27
[9] | 1.02
[10] | 0
[11] | 4.79
[12] | 0
[13] | 25.3
[14] | 15.7
[28] | 6.13

CCCCCCCCc1ccc(CCC(N)(CO)CO)cc1 [Fingolimod] (max concentration tested 10000 nM)
percent inhibition of viability [%]
Details | 1 nM | 10 nM | 100 nM | 1000 nM | 10000 nM
[1] | -2.7 | -1.12 | 2.03 | 16.4 | 101
[15] | -0.71 | -3.03 | -0.07 | 8.48 | 101
[16] | 2.13 | -1.97 | 5.25 | 14.2 | 100
[17] | 2.86 | 25.2 | 18.7 | 13.7 | 101
[18] | -5.21 | -6.36 | 4.8 | 16 | 101
[19] | -1.37 | 0.63 | 1.86 | 10.4 | 102
[20] | 1.29 | 3.97 | 7.28 | -5.13 | 103
[21] | -5.76 | 2.36 | -1.55 | 21.5 | 101
[22] | -0.79 | 1.01 | 0.07 | 10.2 | 102
[23] | 1.04 | 3.67 | 4.21 | 10.1 | 101
[24] | -3 | 6.8 | 9.6 | 30.1 | 101
[25] | 1.77 | 4.72 | 1.22 | 8.33 | 101
[26] | 0.28 | -1.75 | -1.3 | -3.49 | 100
[27] | -17.7 | -6.84 | 5.41 | -5.02 | 100

Details | drug sensitivity score
[2] | 6.91
[3] | 7.91
[4] | 7.85
[5] | 8.2
[6] | 7.3
[7] | 5.44
[8] | 8.95
[9] | 7.28
[10] | 7.23
[11] | 9.92
[12] | 6.91
[13] | 5.33
[14] | 5.22
[28] | 8.27
